Assay results: US20080249165A1, “Glycosides and Salts Thereof” (Ivax Drug Research Institute Ltd., priority 2004, published 2008)
Counter-ions that a name gives are not always drawn. Like-named read-outs stand apart in the source and are kept apart here.

Legend:
IP-3 receptor = target: T1, IP-3 receptor (Rattus norvegicus, UniProt P29994); test: IP-3 receptor antagonistic effect: inhibition of IP3 binding in rat cerebellum membrane preparations (Model 5)
T1 construct: from tissue; host or cells: rat cerebellum (microsomal membrane preparation)
T1 sequence (P29994 whole entry): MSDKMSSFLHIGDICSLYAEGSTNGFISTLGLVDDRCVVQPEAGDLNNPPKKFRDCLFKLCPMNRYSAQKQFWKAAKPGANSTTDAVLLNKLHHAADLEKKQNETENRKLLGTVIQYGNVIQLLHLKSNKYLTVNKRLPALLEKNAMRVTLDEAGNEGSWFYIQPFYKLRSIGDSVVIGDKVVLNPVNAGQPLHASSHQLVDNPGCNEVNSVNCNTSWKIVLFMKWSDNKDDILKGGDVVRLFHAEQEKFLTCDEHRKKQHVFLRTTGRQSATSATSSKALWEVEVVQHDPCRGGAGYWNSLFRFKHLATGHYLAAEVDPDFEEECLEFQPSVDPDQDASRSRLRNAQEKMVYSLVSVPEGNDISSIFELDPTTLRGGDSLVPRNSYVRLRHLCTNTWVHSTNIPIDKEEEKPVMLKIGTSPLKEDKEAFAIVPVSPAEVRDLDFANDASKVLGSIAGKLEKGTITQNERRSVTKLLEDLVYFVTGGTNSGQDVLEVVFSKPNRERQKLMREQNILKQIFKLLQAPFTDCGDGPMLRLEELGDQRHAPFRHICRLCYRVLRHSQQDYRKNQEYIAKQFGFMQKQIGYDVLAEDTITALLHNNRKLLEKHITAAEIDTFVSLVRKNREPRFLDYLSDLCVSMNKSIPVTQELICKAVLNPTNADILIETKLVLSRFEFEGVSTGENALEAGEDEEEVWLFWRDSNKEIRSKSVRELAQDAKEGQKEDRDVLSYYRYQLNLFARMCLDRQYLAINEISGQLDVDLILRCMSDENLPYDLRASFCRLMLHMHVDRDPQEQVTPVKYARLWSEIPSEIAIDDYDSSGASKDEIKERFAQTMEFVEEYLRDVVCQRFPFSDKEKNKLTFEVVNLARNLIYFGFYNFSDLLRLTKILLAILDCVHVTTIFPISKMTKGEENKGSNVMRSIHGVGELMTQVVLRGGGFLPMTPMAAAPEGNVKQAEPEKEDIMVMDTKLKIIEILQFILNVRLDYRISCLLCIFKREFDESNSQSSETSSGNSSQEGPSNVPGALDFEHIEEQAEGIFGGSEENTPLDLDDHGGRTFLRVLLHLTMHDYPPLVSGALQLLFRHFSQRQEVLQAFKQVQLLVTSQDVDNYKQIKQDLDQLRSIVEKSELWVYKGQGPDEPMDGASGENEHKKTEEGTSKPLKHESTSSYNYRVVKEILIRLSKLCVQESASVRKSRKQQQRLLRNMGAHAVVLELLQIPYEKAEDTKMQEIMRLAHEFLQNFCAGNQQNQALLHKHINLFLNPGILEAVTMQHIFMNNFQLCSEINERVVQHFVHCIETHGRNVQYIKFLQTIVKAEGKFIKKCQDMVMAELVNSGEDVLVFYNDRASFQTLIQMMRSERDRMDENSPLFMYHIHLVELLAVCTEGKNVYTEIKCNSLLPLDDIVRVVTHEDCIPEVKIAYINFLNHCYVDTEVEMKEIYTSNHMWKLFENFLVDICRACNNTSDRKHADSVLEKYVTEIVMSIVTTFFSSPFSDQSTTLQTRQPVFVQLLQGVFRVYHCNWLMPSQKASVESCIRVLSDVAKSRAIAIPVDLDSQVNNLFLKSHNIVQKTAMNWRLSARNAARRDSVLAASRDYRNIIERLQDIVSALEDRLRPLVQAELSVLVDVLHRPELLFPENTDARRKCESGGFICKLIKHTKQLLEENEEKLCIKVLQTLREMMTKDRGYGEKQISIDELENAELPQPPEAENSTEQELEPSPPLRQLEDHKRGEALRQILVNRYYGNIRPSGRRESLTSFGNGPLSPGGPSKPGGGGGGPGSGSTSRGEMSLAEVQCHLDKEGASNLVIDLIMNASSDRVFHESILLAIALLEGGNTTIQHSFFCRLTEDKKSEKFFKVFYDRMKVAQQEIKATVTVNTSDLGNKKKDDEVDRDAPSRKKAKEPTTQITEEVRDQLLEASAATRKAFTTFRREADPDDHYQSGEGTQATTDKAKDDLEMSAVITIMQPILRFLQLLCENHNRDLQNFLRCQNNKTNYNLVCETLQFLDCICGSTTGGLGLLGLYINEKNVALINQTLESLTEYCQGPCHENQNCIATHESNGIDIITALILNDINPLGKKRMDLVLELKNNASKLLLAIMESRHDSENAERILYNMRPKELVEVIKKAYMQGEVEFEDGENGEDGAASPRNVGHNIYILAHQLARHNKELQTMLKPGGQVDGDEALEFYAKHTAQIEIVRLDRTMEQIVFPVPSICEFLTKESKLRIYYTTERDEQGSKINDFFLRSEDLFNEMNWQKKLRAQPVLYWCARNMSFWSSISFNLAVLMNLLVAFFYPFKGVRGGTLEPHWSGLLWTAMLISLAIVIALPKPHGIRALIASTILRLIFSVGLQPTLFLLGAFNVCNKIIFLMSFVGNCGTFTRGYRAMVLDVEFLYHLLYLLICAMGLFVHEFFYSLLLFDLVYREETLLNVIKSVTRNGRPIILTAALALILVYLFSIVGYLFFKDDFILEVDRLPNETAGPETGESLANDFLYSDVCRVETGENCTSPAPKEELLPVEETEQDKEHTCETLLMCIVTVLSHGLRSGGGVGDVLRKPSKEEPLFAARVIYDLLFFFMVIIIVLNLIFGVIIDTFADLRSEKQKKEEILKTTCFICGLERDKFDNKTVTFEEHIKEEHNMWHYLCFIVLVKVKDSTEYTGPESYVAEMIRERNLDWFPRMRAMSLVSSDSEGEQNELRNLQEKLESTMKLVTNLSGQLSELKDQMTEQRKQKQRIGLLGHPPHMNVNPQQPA
Method: The polysulfated glycosides of the present invention, depending on their chemical structure, inhibit the binding of inositol-1,4,5-trisphosphate (IP3) to its receptor in microsomal membrane preparations. As IP3 is a messenger molecule playing distinguished role in the activation of different cells, interfering with this function can explain the anti-asthmatic effect of these polysulfated glycosides. The IP3 antagonist effect of the polysulfated glycosides was determined using rat cerebellum membrane preparations according to Worley et al. (JBC 262, 12132, 1987).

BN rats [1] = test: Extent of peribronchial eosinophilia developed in asthmatic lung tissue (Model 4); assay type: in vivo, rat; details: for peribronchial eosinophil number per visual field (average ± SEM): lungs 48 hours after challenge
Method: Sensitized BN rats were treated intratracheally with varying (0.001-1.0 mg/kg) dose of compound described in the first example, two hours before antigenic challenge, using a similar protocol described in Model 1. Lungs were collected 48 hours after challenge and were fixed in 8% phosphate buffered formaldehyde. Samples were then processed for histochemistry routinely. 5 μm thick sections were stained with May Gruenvald Giemsa and the number of eosinophils, situated peribronchially, was determined.

BN rats [2] = test: Allergen stimulated mucus production of airways epithelial cells (Model 2); assay type: in vivo, rat; details: for number of PAS(+) cells as percent of total number of cells (average ± SEM): lungs 48 hours after challenge
Method: Sensitized BN rats were treated intratracheally with varying (0.001-1.0 mg/kg) dose of compound described in the first example, two hours before antigenic challenge, using a similar protocol described in Model 1. Lungs were collected 48 hours after challenge and were fixed in 8% phosphate buffered formaldehyde. Samples were then processed for histochemistry routinely. 5 μm thick sections were stained with periodic-acid-Schiff (PAS) reagents and were counterstained with haematoxylin-eosine. On the sections each epithelial cells of the airways were counted in the whole preparation at a magnification of 400×. The number of PAS(+) [mucus producing] epithelial cells was expressed as the ratio of the total number of epithelial cells.

BN rats [3] = test: Extent of perivascular oedema developed in asthmatic lung tissue (Model 3); assay type: in vivo, rat; details: for Oedema* area of oedema relative to area of vasculature (average ± SEM): lungs 48 hours after challenge
Method: Sensitized BN rats were treated intratracheally with varying (0.001-1.0 mg/kg) dose of compound described in the first example, two hours before antigenic challenge, using a similar protocol described in Model 1. Lungs were collected 48 hours after challenge and were fixed in 8% phosphate buffered formaldehyde. Samples were then processed for histochemistry routinely. 5 μm thick sections were stained with periodic-acid-Schiff (PAS) reagents and were counterstained with haematoxylin-eosine. On the sections the area of the connective tissue around the vasculare was determined and expressed as a ratio of the area of the corresponding blood vessel itself.

BN-rats = test: Airways' hyper-responsiveness ex vivo: tracheal contraction to acetylcholine after antigen challenge and intratracheal pretreatment (Model 1); assay type: in vivo, rat; details: for MAX** Contraction at maximal Ach concentration relative to control (mean ± SEM) / ED50* log M acetylcholine (Ach), causing 50% contraction relative to control (mean ± SEM): trachea 48 h post challenge; for ED50* log M acetylcholine (Ach), causing 50% contraction relative to control (mean ± SEM): sensitized BN rats
Method: Brown Norway (BN) rats were actively sensitized to ovalbumin (OA) by a subcutaneous injection of 0.5 ml of OA/Al(OH)3 gel mixture (2 mg OA+10 g Al(OH)3/100 ml saline) on day 1 with subsequent subcutaneous injections (10 mg OA+10 g Al(OH)3/100 ml saline) given on days 14 and 21. On day 28, animals received the compound described in the first example intratracheally (0.001; 0.01; 0.1 or 1.0 mg/kg dose) 2 hours before antigen challenge. Antigen challenge was performed by inhalation of nebulised ovalbumin (1% antigen solution administered in a TSE inhalation system for 1 hour). Animals were sacrificed 48 hours post antigen challenge wherein the tracheas were removed to an organ bath. Dissected tracheas were allowed to equilibrate for 30 minutes before measuring tracheal spasmogenic response curves to acetylcholine (Ach).

[4] = read-out: IC50 (μg/ml) Average ± SEM (n) (converted)
[5] = 0.001 mg/kg intratracheally two hours before antigenic challenge
[6] = 0.1 mg/kg intratracheally two hours before antigenic challenge
[7] = 0.001 mg/kg intratracheally 2 hours before antigen challenge
[8] = 0.1 mg/kg intratracheally 2 hours before antigen challenge

Structure (SMILES)	IC50 (IP-3 receptor; read-out: Average IC50) [nM]	IC50 (IP-3 receptor; [4]) [nM]	other results
O=S(=O)(O)OC[C@H]1O[C@H](COS(=O)(=O)O)[C@@H](OS(=O)(=O)O)[C@@H]1O[C@H]1OC[C@@H](OS(=O)(=O)O)[C@@H](OS(=O)(=O)O)[C@@H]1OS(=O)(=O)O [Example 5, 2,5-Anhydro-1,4,6-tri-O-sulfato-3-O-(2,3,4-tri-O-sulfato-α-D-arabinopyranosyl)-D-mannitol hexa potassium salt]	26500	34300	
O=S(=O)(O)OCC1OC(COS(=O)(=O)O)C(OS(=O)(=O)O)C1OC1OC(COS(=O)(=O)O)C(OS(=O)(=O)O)C(OS(=O)(=O)O)C1OS(=O)(=O)O [Example 2, 2,5-Anhydro-1,4,6-tri-O-sulfato-3-O-(2,3,4,6-tetra-O-sulfato-α-L-idopyranosyl)-D-mannitol hepta potassium salt]	4810	5650	
O=S(=O)(O)OCC1OC(COS(=O)(=O)O)C(OS(=O)(=O)O)C1OC1OC(COS(=O)(=O)O)C(OS(=O)(=O)O)C(OS(=O)(=O)O)C1OS(=O)(=O)O [Example 1, 2,5-Anhydro-1,4,6-tri-O-sulfato-3-O-(2,3,4,6-tetra-O-sulfato-α-L-idopyranosyl)-D-mannitol hepta sodium salt]	1490	1750	peribronchial eosinophil number per visual field (average ± SEM) (BN rats [1]; [5]): 74 ± 2; peribronchial eosinophil number per visual field (average ± SEM) (BN rats [1]; [6]): 25 ± 2; number of peribronchially situated eosinophils in the lung (in words) (BN rats [1]; higher doses): the decrease become statistically significant; number of peribronchially situated eosinophils in the lung (in words) (BN rats [1]; smallest dose): decreases the extent of it; number of PAS(+) cells as percent of total number of cells (average ± SEM) (BN rats [2]; [5]): 35.2 ± 3.5%; number of PAS(+) cells as percent of total number of cells (average ± SEM) (BN rats [2]; [6]): 17.5 ± 2.4%; number of PAS(+), mucus producing cells (in words) (BN rats [2]; dose of 0.1 mg/kg): significantly decreased; Oedema* area of oedema relative to area of vasculature (average ± SEM) (BN rats [3]; [5]): 41 ± 6; Oedema* area of oedema relative to area of vasculature (average ± SEM) (BN rats [3]; [6]): 53 ± 6; extent of aedema around the vasculature (in words) (BN rats [3]; smallest dose): significantly decreased; MAX** Contraction at maximal Ach concentration relative to control (mean ± SEM) (BN-rats; [7]): 166 ± 41; ED50* log M acetylcholine (Ach), causing 50% contraction relative to control (mean ± SEM) (BN-rats; [7]): 5.78 ± 0.30 log M; MAX** Contraction at maximal Ach concentration relative to control (mean ± SEM) (BN-rats; [8]): 99 ± 16; ED50* log M acetylcholine (Ach), causing 50% contraction relative to control (mean ± SEM) (BN-rats; [8]): 4.70 ± 0.37 log M; tracheal hyper-reactivity to acetylcholine after ovalbumin challenge (in words) (BN-rats; dose of 0.1 mg/kg, 48 h after antigen challenge): brought this elevation back to control level
O=S(=O)(O)OC[C@H]1O[C@@H](OC[C@H]2O[C@@H](O[C@H]3[C@H](OS(=O)(=O)O)[C@@H](COS(=O)(=O)O)O[C@@H]3COS(=O)(=O)O)[C@H](OS(=O)(=O)O)[C@@H](OS(=O)(=O)O)[C@@H]2OS(=O)(=O)O)[C@H](OS(=O)(=O)O)[C@@H](OS(=O)(=O)O)[C@@H]1OS(=O)(=O)O [Example 7, 2,5-Anhydro-1,4,6-tri-O-sulfato-3-O-[6-O-(2,3,4,6-tetra-O-sulfato-β-D-glucopyranosido)-2,3,4-tetra-O-sulfato-β-D-glucopyranosyl]-D-mannitol deca potassium salt]	240	310	
O=S(=O)(O)OC[C@H]1O[C@@H](OC[C@H]2O[C@H](CO[C@@H]3O[C@H](COS(=O)(=O)O)[C@@H](OS(=O)(=O)O)[C@H](OS(=O)(=O)O)[C@H]3OS(=O)(=O)O)[C@@H](OS(=O)(=O)O)[C@@H]2OS(=O)(=O)O)[C@H](OS(=O)(=O)O)[C@@H](OS(=O)(=O)O)[C@@H]1OS(=O)(=O)O [Example 8, 2,5-Anhydro-3,4-di-O-sulfato-1,6-bis-O-(2,3,4,6-tetra-O-sulfato-β-D-glucopyranosyl)-D-mannitol deca potassium salt]	539	698	
O=S(=O)(O)OC[C@H]1O[C@@H](OC[C@H]2O[C@H](CO[C@@H]3O[C@H](COS(=O)(=O)O)[C@@H](OS(=O)(=O)O)[C@H](OS(=O)(=O)O)[C@H]3OS(=O)(=O)O)[C@@H](OS(=O)(=O)O)[C@@H]2O[C@@H]2O[C@H](COS(=O)(=O)O)[C@@H](OS(=O)(=O)O)[C@H](OS(=O)(=O)O)[C@H]2OS(=O)(=O)O)[C@H](OS(=O)(=O)O)[C@@H](OS(=O)(=O)O)[C@@H]1OS(=O)(=O)O [Example 10, 2,5-Anhydro-4-O-sulfato-1,3,6-tris-O-(2,3,4,6-tetra-O-sulfato-β-D-glucopyranosyl)-D-mannitol trideca potassium salt]	137	177	
O=S(=O)(O)OC[C@H]1O[C@@H](O[C@H]2[C@H](OS(=O)(=O)O)[C@@H](COS(=O)(=O)O)O[C@@H]2COS(=O)(=O)O)[C@H](OS(=O)(=O)O)[C@@H](OS(=O)(=O)O)[C@@H]1OS(=O)(=O)O [Example 3, 2,5-Anhydro-1,4,6-tri-O-sulfato-3-O-(2,3,4,6-tetra-O-sulfato-β-D-glucopyranosyl)-D-mannitol hepta sodium salt]	1390	1210	
O=S(=O)(O)OCC1OC(OCC2OC(OCC3OC(COC4OC(COC5OC(COS(=O)(=O)O)C(OS(=O)(=O)O)C(OS(=O)(=O)O)C5OS(=O)(=O)O)C(OS(=O)(=O)O)C(OS(=O)(=O)O)C4OS(=O)(=O)O)C(OS(=O)(=O)O)C3OS(=O)(=O)O)C(OS(=O)(=O)O)C(OS(=O)(=O)O)C2OS(=O)(=O)O)C(OS(=O)(=O)O)C(OS(=O)(=O)O)C1OS(=O)(=O)O [Example 9, 2,5-Anhydro-3,4-di-O-sulfato-1,6-bis-[(6-O-2,3,4,6-tetra-O-sulfato-β-D-glucopyranosido)-2,3,4-tri-O-sulfato-β-D-glucopyranosyl]-D-mannitol hexadeca potassium salt]	115	148	
O=S(=O)(O)OC[C@H]1O[C@@H](O[C@H]2[C@H](OS(=O)(=O)O)[C@@H](COS(=O)(=O)O)O[C@@H]2COS(=O)(=O)O)[C@H](OS(=O)(=O)O)[C@@H](OS(=O)(=O)O)[C@@H]1O[C@H]1O[C@H](COS(=O)(=O)O)[C@@H](OS(=O)(=O)O)[C@H](OS(=O)(=O)O)[C@H]1OS(=O)(=O)O [Example 6, 2,5-Anhydro-1,4,6-tri-O-sulfato-3-O-(2,3,6,2′,3′,4′,6′-hepta-O-sulfato-β-D-maltosyl)-D-mannitol deca potassium salt]	222	287	
O=S(=O)(O)OC[C@H]1O[C@H](COS(=O)(=O)O)[C@@H](OS(=O)(=O)O)[C@@H]1O[C@@H]1OC[C@H](OS(=O)(=O)O)[C@H](OS(=O)(=O)O)[C@H]1OS(=O)(=O)O [Example 4, 2,5-Anhydro-1,4,6-tri-O-sulfato-3-O-(2,3,4-tri-O-sulfato-α-L-arabinopyranosyl)-D-mannitol hexa potassium salt]	20300	26300	
